Measurements published in US20260265055A1, “Sulfine-Based Compounds for Generating Hydrogen Persulfide” (Brown University, priority 2023, published 2026).

Experiments:
HeLa cells = assay: Live cell imaging of H2S2 formation with SSP4; format: cell-based; conditions: 30 min
Method: HeLa cells were seeded at ~7000 cells/well in a 96-well clear flat-bottomed BioLite plate (ThermoFisher Scientific, #130188) in DMEM/F12 (1:1) (Gibco, Invitrogen, #11330-032) medium supplemented with 10% fetal bovine serum (FBS) at 37° C., 5% CO2 overnight.
Preparation before cell treatment: Na2S and Na2S2 stocks were prepared at 10 mM in sterile 1×PBS. TTS and TT were prepared at 10 mM concentrations in DMSO. They were then diluted to 50 μM concentrations in serum-free Fluorobrite DMEM in individual Eppendorf tubes (0.5% DMSO). Na2S (final concentration=100 μM) was added to the Eppendorf tube containing Fluorobrite DMEM and TTS or TT immediately before being added to the cells. Compounds were mixed by pipetting up and down prior to cell addition.
Cell treatment: Culturing media was aspirated from all wells, and cells were washed twice with 1×PBS. Compounds were added to cells (200 μL/well) and incubated for 30 min at 37° C., 5% CO2. While cells were incubating, SSP4 treatment was prepared by first adding 5 mM CTAB in ethanol to Fluorobrite DMEM followed by 6.125 mM SSP4 in DMSO to final concentrations of 100 μM and 5 μM, respectively, in a tube. The final volume was 5 mL (0.08% DMSO). Compounds were mixed by pipetting up and down prior to cell addition. After incubation, media was aspirated, and cells were washed twice with 1×PBS. SSP4 treatment was added to all wells (100 μL/well), and cells were incubated for 30 min at 37° C., 5% CO2 for 30 min. Media was then aspirated, and cells were washed three times with 1×PBS. Fluorobrite DMEM was added to all wells before imaging on the Keyence All-in-One Fluorescence Microscope (BZ-X810) (excitation: 470/40 nm; emission: 525/50 nm).
As shown in FIGS. 4(A)-(D), HeLa cells were treated with TTS, TTS+H2S, or TT for 30 min before the fluorescent sensor SSP4 was applied to the cells to monitor the formation of H2S2. […] Na2S2 was used as the positive control in this study (FIG. 4D). Other control studies including TT+H2S, H2S only, and SSP4 only were also performed. […] FIG. 4H is a graph of fluorescence intensities of SSP4 staining. Data are mean values ±SEM calculated using ImageJ. (n=9, where three different images were obtained from each of three samples and quantified).

GAPDH = target: T1, GAPDH (Oryctolagus cuniculus, UniProt P46406); assay: GAPDH protein S-persulfidation (SSP4 fluorescence, LC-MS/MS); format: biochemical, rabbit
T1 construct: GAPDH (from rabbit muscle, #G2267, Sigma-Aldrich); purchased Sigma-Aldrich G2267; host or cells: rabbit muscle (tissue-purified)
T1 sequence (P46406 whole entry): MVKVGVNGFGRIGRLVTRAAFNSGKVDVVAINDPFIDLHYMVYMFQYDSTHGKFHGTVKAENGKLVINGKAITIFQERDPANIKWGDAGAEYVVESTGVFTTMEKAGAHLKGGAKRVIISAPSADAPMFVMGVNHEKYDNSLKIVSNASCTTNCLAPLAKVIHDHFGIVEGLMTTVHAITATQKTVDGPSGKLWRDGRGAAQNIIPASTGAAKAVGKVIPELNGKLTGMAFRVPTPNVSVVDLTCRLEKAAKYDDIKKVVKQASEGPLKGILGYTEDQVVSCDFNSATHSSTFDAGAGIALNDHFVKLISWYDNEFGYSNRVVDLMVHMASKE
Method: One of the primary functions of H2S2 is to induce protein S-persulfidation. Existing methods treat proteins with Na2S2 directly to obtain the persulfidated proteins. The present disclosure contemplates the use of TTS and H2S to persulfidate proteins as a comparison with Na2S2. GAPDH was used as the protein model and its persulfidation was evaluated by SSP4 using a protocol described in Shieh, M. et al., Shining a light on SSP4: a comprehensive analysis and biological applications for the detection of sulfane sulfurs. Redox Biol. 2022, 56, 102433 and Ni, X. et al., A sweet H2S/H2O2 dual release system and specific protein S-persulfidation mediated by thioglucose/glucose oxidase. J. Am. Chem. Soc. 2021, 143, 13325-13332. Reduced GAPDH (100 μM) was individually treated with 10 eq. of TTS+Na2S or Na2S2, as well as control reagents (TTS or Na2S only). The protein samples were then purified using Zeba Spin Desalting Columns (7K MWCO), diluted (to 10 μM), and treated with SSP4 (5 μM). Fluorescence signals were recorded to reflect persulfidation levels. […] To provide further evidence of persulfidation in the GAPDH system, TTS+Na2S-treated GAPDH was alkylated with HPE-IAM to stabilize the protein persulfides.
216 μL of PBS (50 mM, pH 7.4) was added to 3.9 mg of GAPDH (from rabbit muscle, #G2267, Sigma-Aldrich) to obtain a concentration of 500 μM (MW: 36 kDa). DTT (10 mM in DMSO, 11.35 μL) was added for a final equal concentration with the GAPDH. The solution was incubated in the dark at room temperature for 30 min. Zeba 7K MWCO spin columns were prepared and used according to manufacturer's instructions with 3 PBS washes. Excess reductant was removed by column purification with the Zeba 7K MWCO columns. The resulting reduced protein concentration was determined by the absorbance at 280 nm (εmM=30.4 mM-1 cm-1) using the Nanodrop One Microvolume UV-Vis Spectrophotometer (ThermoFisher Scientific). For controls, reduced GAPDH was treated with NEM (1:5 equiv.) and incubated at rt in the dark for 30 min before excess NEM was removed by the Zeba 7K MWCO columns. Next, the reduced protein was diluted to a final concentration of 100 μM in a final volume of 100 μL and treated with TTS (10 μL of 10 mM in DMSO for a final concentration of 1 mM), Na2S (10 μL of 10 mM in MilliQ H2O for a final concentration of 1 mM), both TTS and Na2S, or Na2S2 (10 μL of 10 mM in MilliQ H2O for a final concentration of 1 mM). For example, if the reduced protein (361 μM) was only to be treated with TTS, 62.3 μL of PBS (50 mM, pH 7.4) would first be added to an Eppendorf tube, followed by 27.7 μL of protein, and followed by 10 μL of TTS. TTS+Na2S and Na2S2 samples were also prepared at the concentrations above without any protein, where PBS (50 mM, pH 7.4) was used in place of the proteins (volume-wise). Samples were incubated at room temperature for 30 min in the dark before being purified by Zeba 7K MWCO columns (three times to ensure proper removal of excess treatment molecules) and quantified by absorbance. […] All samples were then incubated with SSP4 (5 μL of 100 μM in DMSO for a final concentration of 5 μM) in individual wells of a black clear flat bottom 96-well plate. The final volume was 100 μL. For example, if the persulfidated protein (99.5 μM) was to be examined, 84.95 μL of PBS (50 mM, pH 7.4) would first be added to a well, followed by 10.05 μL of protein, and then followed by 5 μL of SSP4. Incubation occurred at room temperature in the dark for 30 min before being measured on the SpectraMax iD3 microplate reader (ex: 485 nm; em: 525 nm).

SMILES: COC(=O)c1ccc(=S=O)sc1 [TTS, 2H-thiopyran-2-thione sulfine]
- SSP4 fluorescence in HeLa cells (HeLa cells; compound 50 μM + Na2S 100 μM): Significant green fluorescence
- SSP4 fluorescence in HeLa cells (HeLa cells; compound only): did not show obvious fluorescence
- GAPDH persulfidation signal compared with Na2S2 (GAPDH; TTS 1 mM + Na2S 1 mM vs Na2S2 1 mM, one-way ANOVA): significantly higher signals than Na2S2
- GAPDH persulfidation by LC-MS/MS after HPE-IAM alkylation and trypsin digestion (GAPDH; TTS+Na2S-treated GAPDH): successful protein persulfidation
- SSP4 fluorescence of persulfidated GAPDH (GAPDH; reduced GAPDH 100 μM treated with TTS 1 mM + Na2S 1 mM): strong fluorescence
- SSP4 fluorescence of persulfidated GAPDH (GAPDH; reduced GAPDH 100 μM treated with the reagent only (1 mM)): did not give any notable fluorescence
